# Experiments:
# [1] = system: passive collagen-induced arthritis; test: passive collagen induced arthritis (anti-type II collagen antibodies); assay type: in vivo, DBA/1 mice; conditions: 40 mg/kg/day oral gavage
# Source text: The capacity of formula 1 compounds to affect the course of arthritis in a passive collagen induced arthritis model of arthritis was examined essentially as previously described (E. Simelyte et al., Arthritis & Rheumatism, 52(6):1876-1884, 2005; Z. Han et al. Arthritis & Rheumatism 46(3):818-823, 2002; H. Miyahara et al., Clin. Immunol. Immunopathol., 69(1):69-76 1993). In this protocol, passive collagen-induced arthritis was induced in DBA/1 mice by administering anti-type II collagen antibodies, which induced an immune response against joint tissue in the animals. […] The severity of arthritis was assessed using a semiquantitative clinical scoring system. Groups of 8 animals per group were treated with 17α-ethynylandrost-5-ene-3β,7β,17β-triol at 40 mg/kg/day for 14 days or vehicle for 14 days by oral gavage. The vehicle was 30% cyclodextrin-sulfobutylether in water and the drug solution was vehicle with drug at 20 mg/mL.
# The animals were examined by measuring ankle thickness and arthritis score (4-point/paw) with a higher score indicating a more severe arthritis. The experiment was terminated after about 14 days, and histology and gene expression measurements were performed. […] A semi-quantitative scoring system was used to access synovial inflammation, extraarticular inflammation, erosion and proteogylcan loss. […]
# [2] = system: human T lymphocytes (PBMC); test: human mixed lymphocyte reaction (MLR); assay type: cell-based; conditions: 300 nM or 30 nM
# [3] = system: collagen induced arthritis; test: collagen induced arthritis (bCII), Foxp3+ cells and clinical score; assay type: in vivo, DBA/1Lac/J mice
# Protocol: Increase of CD4^+CD25^+ T regulatory cells or their activity in vivo. The compound 17α-ethynylandrost-5-ene-3β,7β,17β-triol was administered to mice essentially as described in a previously described collagen induced arthritis animal model. H. Offner et al., Clin. Immunol., 110:181-190, 2006.
# DBA/1Lac/J mice were used for the study. The mice were obtained from Jackson Laboratories (Bar Harbor, Harbor, […].) and housed in accordance with applicable institutional guidelines. Bovine type II collagen (bCII) was used to induce collagen induced arthritis (CIA) by immunizing 8-week-old mice with 200 μg of bCII emulsified 1:1 with CFA containing 200 μg Mycobacterium tuberculosis (100 μL; Difco, Detroit, Mich.). The antigen was injected intradermally at the base of the tail. The animals were monitored for 4-7 weeks to observe the onset and progression of the disease post-immunization. The arthritic severity was evaluated with a grading system for each paw according to the following scale: 0=no redness or swelling; 1=slight swelling in ankle or redness in foot; 2=progressed swelling and inflammation and redness from ankle to mid foot; 3=swelling and inflammation of entire foot; 4=swelling and inflammation of entire foot including toes.
# After immunization, the mice were treated with the drug at 40 mg/kg/day in vehicle by oral gavage beginning at the start of observable clinical disease (beginning at about 26-27 days after immunization). The vehicle that was used for the protocol was 30% cyclodextrin-sulfobutylether in water. The cyclodextrin-sulfobutylether was obtained commercially (Captisol™ available at cydexinc.com). The drug formulation was 20 mg drug/mL in the vehicle.
compound,measurement,setting,value
"C#C[C@]1(O)CC[C@H]2[C@@H]3[C@@H](O)C=C4C[C@@H](O)CC[C@]4(C)[C@H]3CC[C@@]21C [17α-ethynylandrost-5-ene-3β,7β,17β-triol]",maximum clinical score,[1]; day 7,5.1
same,clinical score at day 14,[1]; end of protocol,4.1
same,immune suppression (inhibition of the MLR),[2],not appreciably immune suppressive
same,Foxp3^+ CD4^+ cells by cell sorter analysis,[3]; 40 mg/kg/day oral gavage,1.4%
same,maximum mean clinical score,[3]; day 34 after immunization,about 5
same,mean clinical score,[3]; day 49 after immunization,about 3
